Measurements as given in US10494380B2, “Nitrogen-containing tricyclic derivatives having HIV replication inhibitory activity” (priority 2015, dated 2019).
Read-outs that look alike come from different tables or passages of the source.

Assays:
[1] = molecular target: CYP2C9 (Homo sapiens (Human), UniProt P11712); assay: CYP inhibition assay, tolbutamide methyl-hydroxylation (Test Example 4); type: in vitro ADME; conditions: pooled human hepatic microsome, 100 μmol/L tolbutamide, 15 minutes, 37° C.
Experimental: Using commercially available pooled human hepatic microsome, and employing, as markers, 7-ethoxyresorufin O-deethylation (CYP1A2), tolbutamide methyl-hydroxylation (CYP2C9), mephenytoin 4′-hydroxylation (CYP2C19), dextromethorphan O-demethylation (CYP2D6), and terfenadine hydroxylation (CYP3A4) as typical substrate metabolism reactions of human main five CYP enzyme forms (CYP1A2, 2C9, 2C19, 2D6, 3A4) an inhibitory degree of each metabolite production amount by a test compound was assessed.
The reaction conditions were as follows: substrate, 0.5 μmol/L ethoxyresorufin (CYP1A2), 100 μmol/L tolbutamide (CYP2C9), 50 μmol/L S-mephenytoin (CYP2C19), 5 μmol/L dextromethorphan (CYP2D6), 1 μmol/L terfenedine (CYP3A4); reaction time, 15 minutes; reaction temperature, 37° C.; enzyme, pooled human hepatic microsome 0.2 mg protein/mL; test drug concentration, 1, 5, 10, 20 μmol/L (four points).
Each five kinds of substrates, human hepatic microsome, and a test drug in 50 mmol/L Hepes buffer as a reaction solution was added to a 96-well plate as the composition ad described above, NADPH, as a coenzyme was added to initiate metabolism reactions as markers and, after the incubation at 37° C. for 15 minutes, a methanol/acetonitrile=1/1 (V/V) solution was added to stop the reaction. After the centrifugation at 3000 rpm for 15 minutes, resorufin (CYP1A2 metabolite) in the supernatant was quantified by a fluorescent multilabel counter and tolbutamide hydroxide (CYP2C9 metabolite), mephenytoin 4′ hydroxide (CYP2C19 metabolite), dextrorphan (CYP2D6 metabolite), and terfenadine alcohol (CYP3A4 metabolite) were quantified by LC/MS/MS.

[2] = system: T125A mutant virus (HIV-1 NL-432 recombinant molecular clone, IN gene); assay: HIV replication inhibition assay against integrase 124/125 mutant virus (Test Example 2); type: cell-based
Summary of the method: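 EC50 is the compound concentration blocking half of virus-induced cell death, measured by MTT (OD 560 nm, 690 nm reference) after 4 days at 37 °C. Integrase 124/125 mutant NL-432 virus from transfected 293T cells (60 pfu) was added to 2.5×10^4 MT-4 cells with compound.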

[3] = system: HIV; type: cell-based; conditions: EC50 in the presence of human serum (25%) versus without human serum, MT-4 cells
Summary of the method: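 HIV-infected MT-4 cells (3×10^4/well, infected 1 h at 37° C) are grown 4 days with compound that was first mixed 1 h with human serum or with medium only. Potency shift is the EC50 with serum divided by the EC50 without serum.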

[4] = molecular target: CYP3A4 (Homo sapiens (Human), UniProt P08684); assay: CYP3A4 (MDZ) MBI test (Test Example 6); conditions: pooled human liver microsomes, midazolam 1-hydroxylation, preincubation 0 or 30 min
[5] = system: HIV (HTLV-IIIB strain); assay: HIV replication inhibition assay (Test Example 1; MT-4 cells, MTT); type: cell-based; conditions: HIV (HTLV-IIIB strain), MT-4 cells, MTT, four days; for EC50: read-out: EC50; for EC90: read-out: EC90
Summary of the method: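 MT-4 cells (2.5×10^4/well) were infected with HIV HTLV-IIIB (60 pfu) in the presence of compound and cultured 4 days at 37 °C. Cell viability was read by MTT reduction (OD 560/690 nm). EC50 and EC90 are the concentrations inhibiting virus-induced cytotoxicity by 50% and 90%.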

[6] = system: sheep red blood cells (RBC); assay: Photohemolysis test (Test Example 13); type: cell-based; conditions: 0.0008 to 0.1 w/v %, 10 J/cm2 UV-irradiation (290-400 nm)
Summary of the method: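 Sheep RBC suspension (2.5 v/v %) with compound at 0.0008–0.1 w/v % exposed to 10 J/cm2 UV-A/UV-B (290–400 nm), then centrifuged. Supernatant absorbance at 540 nm gave photohemolysis index (PI) and at 630 nm met-Hb formation. Negative if PI<10% and 630 nm change <0.05; otherwise positive.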

[7] = Human immunodeficiency virus 1, MT4, read-out: EC50 against T125A mutant virus, T125A mutant virus (HIV-1 NL-432 IN gene), MT-4 cells, MTT
[8] = Human immunodeficiency virus 1, MT4, 96 h
[9] = T125A mutant virus (HIV-1 NL-432 IN gene), MT-4 cells, MTT, read-out: EC50 against T125A mutant virus

CYP2C9, sequence (P11712 whole entry): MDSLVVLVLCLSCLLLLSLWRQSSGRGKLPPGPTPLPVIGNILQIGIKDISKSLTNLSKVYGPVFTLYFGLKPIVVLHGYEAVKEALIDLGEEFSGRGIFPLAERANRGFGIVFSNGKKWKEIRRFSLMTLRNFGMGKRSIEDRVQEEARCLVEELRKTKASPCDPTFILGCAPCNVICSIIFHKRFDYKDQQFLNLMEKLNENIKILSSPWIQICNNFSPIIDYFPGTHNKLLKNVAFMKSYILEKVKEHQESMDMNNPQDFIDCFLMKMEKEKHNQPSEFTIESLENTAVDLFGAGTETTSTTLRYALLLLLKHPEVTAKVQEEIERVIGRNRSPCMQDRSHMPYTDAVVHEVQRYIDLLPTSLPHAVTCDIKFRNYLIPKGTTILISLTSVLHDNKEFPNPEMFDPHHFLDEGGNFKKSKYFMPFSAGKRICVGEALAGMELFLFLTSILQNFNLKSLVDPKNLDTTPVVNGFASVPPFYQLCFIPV
CYP3A4, sequence (P08684 whole entry): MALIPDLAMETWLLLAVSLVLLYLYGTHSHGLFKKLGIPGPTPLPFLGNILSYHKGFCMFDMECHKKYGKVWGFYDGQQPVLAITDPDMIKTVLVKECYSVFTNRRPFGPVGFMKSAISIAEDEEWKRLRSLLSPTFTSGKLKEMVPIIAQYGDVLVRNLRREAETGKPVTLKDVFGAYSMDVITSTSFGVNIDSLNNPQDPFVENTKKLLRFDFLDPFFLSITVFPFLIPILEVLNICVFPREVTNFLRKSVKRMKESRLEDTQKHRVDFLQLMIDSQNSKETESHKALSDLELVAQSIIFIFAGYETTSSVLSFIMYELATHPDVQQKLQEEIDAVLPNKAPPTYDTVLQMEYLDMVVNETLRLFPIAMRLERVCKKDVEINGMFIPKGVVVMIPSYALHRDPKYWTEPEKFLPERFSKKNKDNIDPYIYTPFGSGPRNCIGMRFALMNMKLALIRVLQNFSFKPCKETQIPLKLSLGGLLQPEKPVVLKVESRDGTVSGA

## Cc1ccc(-c2c([C@H](OC(C)(C)C)C(=O)O)c(C)c3c4c2cc(C)n4CCN3c2nc3c(s2)CCN(C)C3)cc1 [Compound I-292]
[1]
  IC50: > 20000 nM
[2]; [7]
  EC50: 6.3 nM
[3]
  Potency shift value: 4.5
[4]
  CYP3A4 (MDZ) MBI, shifted IC: (−) (When a shifted IC was 1.0 or less, this was defined as negative)
[5]; [8]
  EC50: 2.5 nM
  EC90: 5.1 nM
[6]
  Photohemolysis test, potential of phototoxicity (PI and met-Hb): (−) (negative criteria (−), PI<10% and changes in absorbance at 630 nm<0.05, respectively)

## COc1cnc(N2CCn3c(C)cc4c(-c5ccc(Cl)cc5)c([C@H](OC(C)(C)C)C(=O)O)c(C)c2c43)nc1 [Compound I-156]
[1]
  IC50: > 20000 nM
[2]; [7]
  EC50: 3.6 nM
[3]
  Potency shift value: 12
[4]
  CYP3A4 (MDZ) MBI, shifted IC: (−) (When a shifted IC was 1.0 or less, this was defined as negative)
[5]; [8]
  EC50: 0.85 nM
  EC90: 1.2 nM
[6]
  Photohemolysis test, potential of phototoxicity (PI and met-Hb): (−) (negative criteria (−), PI<10% and changes in absorbance at 630 nm<0.05, respectively)

## Cc1ccc(-c2c([C@H](OC(C)(C)C)C(=O)O)c(C)c3c4c2cc(C)n4CCN3c2ncc(OC3CCN(C)CC3)cn2)cc1 [Compound I-278]
[1]
  IC50: > 20000 nM
[2]; [7]
  EC50: 13 nM
[3]
  Potency shift value: 3.6
[4]
  CYP3A4 (MDZ) MBI, shifted IC: (−) (When a shifted IC was 1.0 or less, this was defined as negative)
[5]; [8]
  EC50: 5.5 nM
  EC90: 11 nM
[6]
  Photohemolysis test, potential of phototoxicity (PI and met-Hb): (−) (negative criteria (−), PI<10% and changes in absorbance at 630 nm<0.05, respectively)

## Cc1ccc(-c2c([C@H](OC(C)(C)C)C(=O)O)c(C)c3c4c2cc(C)n4CCN3c2ncc(CN3CCCCC3)cn2)cc1 [Compound I-308]
[1]
  IC50: > 20000 nM
[2]; [9]
  EC50: 4.3 nM
[3]
  Potency shift value: 11
[4]
  CYP3A4 (MDZ) MBI, shifted IC: (−) (When a shifted IC was 1.0 or less, this was defined as negative)
[5]
  EC50: 1.6 nM
  EC90: 4.8 nM
[6]
  Photohemolysis test, potential of phototoxicity (PI and met-Hb): (−) (negative criteria (−), PI<10% and changes in absorbance at 630 nm<0.05, respectively)

## Cc1ccc(-c2c(C(OC(C)(C)C)C(=O)O)c(C)c3c4c2cc(C)n4CCN3CCN(C)C)cc1 (stereo not drawn) [Compound I-027]
[1]
  IC50: > 20000 nM
[2]; [9]
  EC50: 26 nM
[3]
  Potency shift value: 1.4
[4]
  CYP3A4 (MDZ) MBI, shifted IC: (−) (When a shifted IC was 1.0 or less, this was defined as negative)
[5]
  EC50: 9.9 nM
  EC90: 16 nM
[6]
  Photohemolysis test, potential of phototoxicity (PI and met-Hb): (−) (negative criteria (−), PI<10% and changes in absorbance at 630 nm<0.05, respectively)

## Cc1ccc(-c2c([C@H](OC(C)(C)C)C(=O)O)c(C)c3c4c2cc(C)n4CCN3c2ncc(CCN3CCCCC3)cn2)cc1 [Compound I-305]
[1]
  IC50: > 20000 nM
[2]; [9]
  EC50: 12 nM
[3]
  Potency shift value: 3.6
[4]
  CYP3A4 (MDZ) MBI, shifted IC: (−) (When a shifted IC was 1.0 or less, this was defined as negative)
[5]
  EC50: 3.7 nM
  EC90: 4.9 nM
[6]
  Photohemolysis test, potential of phototoxicity (PI and met-Hb): (−) (negative criteria (−), PI<10% and changes in absorbance at 630 nm<0.05, respectively)

## Cc1ccc(N2CCn3c(C)cc4c(-c5ccc(Cl)cc5)c([C@H](OC(C)(C)C)C(=O)O)c(C)c2c43)nn1 [Compound I-262]
[1]
  IC50: > 20000 nM
[2]; [7]
  EC50: 5 nM
[3]
  Potency shift value: 13
[4]
  CYP3A4 (MDZ) MBI, shifted IC: (−) (When a shifted IC was 1.0 or less, this was defined as negative)
[5]; [8]
  EC50: 3.2 nM
  EC90: 5.1 nM
[6]
  Photohemolysis test, potential of phototoxicity (PI and met-Hb): (−) (negative criteria (−), PI<10% and changes in absorbance at 630 nm<0.05, respectively)

## Cc1ccc(-c2c([C@H](OC(C)(C)C)C(=O)O)c(C)c3c4c2cc(C)n4CCN3c2ncc(O[C@H]3CCN(C)C3)cn2)cc1 [Compound I-270]
[1]
  IC50: > 20000 nM
[2]; [7]
  EC50: 13 nM
[3]
  Potency shift value: 3.8
[4]
  CYP3A4 (MDZ) MBI, shifted IC: (−) (When a shifted IC was 1.0 or less, this was defined as negative)
[5]; [8]
  EC50: 4.5 nM
  EC90: 7.5 nM
[6]
  Photohemolysis test, potential of phototoxicity (PI and met-Hb): (−) (negative criteria (−), PI<10% and changes in absorbance at 630 nm<0.05, respectively)

## Cc1ccc(-c2c([C@H](OC(C)(C)C)C(=O)O)c(C)c3c4c2cc(C)n4CCN3c2ccc(N3CCCC3=O)nn2)cc1 [Compound I-303]
[1]
  IC50: > 20000 nM
[2]; [9]
  EC50: 4.3 nM
[3]
  Potency shift value: 15
[4]
  CYP3A4 (MDZ) MBI, shifted IC: (−) (When a shifted IC was 1.0 or less, this was defined as negative)
[5]
  EC50: 1.5 nM
  EC90: 4 nM
[6]
  Photohemolysis test, potential of phototoxicity (PI and met-Hb): (−) (negative criteria (−), PI<10% and changes in absorbance at 630 nm<0.05, respectively)

## Cc1ccc(-c2c([C@H](OC(C)(C)C)C(=O)O)c(C)c3c4c2cc(C)n4CCN3c2ncc(CCN3CCOCC3)cn2)cc1 [Compound I-309]
[1]
  IC50: > 20000 nM
[2]; [9]
  EC50: 4.7 nM
[3]
  Potency shift value: 13
[4]
  CYP3A4 (MDZ) MBI, shifted IC: (−) (When a shifted IC was 1.0 or less, this was defined as negative)
[5]
  EC50: 2.2 nM
  EC90: 1.5 nM
[6]
  Photohemolysis test, potential of phototoxicity (PI and met-Hb): (−) (negative criteria (−), PI<10% and changes in absorbance at 630 nm<0.05, respectively)

## Cc1c([C@H](OC(C)(C)C)C(=O)O)c(-c2ccc(Cl)cc2)c2cc(C)n3c2c1N(c1ncc(OCCN(C)C)cn1)CC3 [Compound I-244]
[1]
  IC50: > 20000 nM
[2]; [7]
  EC50: 12 nM
[3]
  Potency shift value: 3.4
[4]
  CYP3A4 (MDZ) MBI, shifted IC: (−) (When a shifted IC was 1.0 or less, this was defined as negative)
[5]; [8]
  EC50: 4.8 nM
  EC90: 8 nM
[6]
  Photohemolysis test, potential of phototoxicity (PI and met-Hb): (−) (negative criteria (−), PI<10% and changes in absorbance at 630 nm<0.05, respectively)

## [2H]C([2H])([2H])Oc1cnc(N2CCn3c(C)cc4c(-c5ccc(Cl)cc5)c([C@H](OC(C)(C)C)C(=O)O)c(C)c2c43)nc1 [Compound I-260]
[1]
  IC50: > 20000 nM
[2]; [7]
  EC50: 3.6 nM
[3]
  Potency shift value: 15
[4]
  CYP3A4 (MDZ) MBI, shifted IC: (−) (When a shifted IC was 1.0 or less, this was defined as negative)
[5]; [8]
  EC50: 1.1 nM
  EC90: 1.5 nM
[6]
  Photohemolysis test, potential of phototoxicity (PI and met-Hb): (−) (negative criteria (−), PI<10% and changes in absorbance at 630 nm<0.05, respectively)
